# How the values were obtained:
# [1] = molecular target: T1, Serine/threonine-protein kinase Nek10 (Homo sapiens) (UniProt Q6ZWH5); test: Selectivity interaction (KinomeScan (DiscoverX)) EUB0001049a NEK10; conditions: at 1 µM
# T1 sequence (whole entry): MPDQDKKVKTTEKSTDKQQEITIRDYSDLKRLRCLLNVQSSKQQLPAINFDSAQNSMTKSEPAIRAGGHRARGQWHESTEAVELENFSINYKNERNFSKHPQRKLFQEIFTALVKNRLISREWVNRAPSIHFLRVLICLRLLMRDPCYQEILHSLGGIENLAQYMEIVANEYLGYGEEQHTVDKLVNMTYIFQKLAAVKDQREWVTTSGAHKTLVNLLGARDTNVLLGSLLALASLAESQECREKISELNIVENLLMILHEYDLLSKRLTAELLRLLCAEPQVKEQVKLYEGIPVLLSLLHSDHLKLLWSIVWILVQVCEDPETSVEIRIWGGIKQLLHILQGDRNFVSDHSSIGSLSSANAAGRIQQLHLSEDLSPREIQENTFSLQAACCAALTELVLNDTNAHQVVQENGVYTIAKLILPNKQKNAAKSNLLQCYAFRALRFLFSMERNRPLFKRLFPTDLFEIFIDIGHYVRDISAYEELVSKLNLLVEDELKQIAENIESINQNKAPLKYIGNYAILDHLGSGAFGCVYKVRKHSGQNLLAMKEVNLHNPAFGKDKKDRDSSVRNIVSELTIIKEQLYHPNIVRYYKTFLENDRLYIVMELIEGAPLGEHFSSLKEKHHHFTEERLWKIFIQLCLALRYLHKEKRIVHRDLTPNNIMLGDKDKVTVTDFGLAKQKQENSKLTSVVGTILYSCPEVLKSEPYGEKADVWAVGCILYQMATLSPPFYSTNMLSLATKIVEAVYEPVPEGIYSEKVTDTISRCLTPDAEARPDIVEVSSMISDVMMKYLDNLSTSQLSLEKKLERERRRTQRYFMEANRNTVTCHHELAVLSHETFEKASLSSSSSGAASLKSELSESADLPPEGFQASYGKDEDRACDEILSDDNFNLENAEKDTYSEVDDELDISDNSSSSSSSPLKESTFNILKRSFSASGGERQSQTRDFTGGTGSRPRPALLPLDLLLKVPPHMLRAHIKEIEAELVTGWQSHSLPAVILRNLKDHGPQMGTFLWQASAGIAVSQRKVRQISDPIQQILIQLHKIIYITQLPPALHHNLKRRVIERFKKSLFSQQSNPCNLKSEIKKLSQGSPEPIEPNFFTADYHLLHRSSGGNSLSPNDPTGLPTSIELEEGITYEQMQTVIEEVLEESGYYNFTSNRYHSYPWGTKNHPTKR
# [2] = molecular target: Mitogen-activated protein kinase 8 (Homo sapiens, UniProt P45983); test: Selectivity interaction (KinomeScan (DiscoverX)) EUB0000695a MAPK8; conditions: at 100 nM
# [3] = molecular target: Mitogen-activated protein kinase kinase kinase kinase 4 (Homo sapiens, UniProt O95819); test: Selectivity interaction (KinomeScan (DiscoverX)) EUB0000229b MAP4K4; conditions: at 10 µM
# [4] = molecular target: T2, Inhibitor of nuclear factor kappa-B kinase subunit alpha (Homo sapiens) (UniProt O15111); test: Selectivity interaction (KinomeScan (DiscoverX)) EUB0000229b CHUK; conditions: at 10 µM
# T2 sequence (whole entry): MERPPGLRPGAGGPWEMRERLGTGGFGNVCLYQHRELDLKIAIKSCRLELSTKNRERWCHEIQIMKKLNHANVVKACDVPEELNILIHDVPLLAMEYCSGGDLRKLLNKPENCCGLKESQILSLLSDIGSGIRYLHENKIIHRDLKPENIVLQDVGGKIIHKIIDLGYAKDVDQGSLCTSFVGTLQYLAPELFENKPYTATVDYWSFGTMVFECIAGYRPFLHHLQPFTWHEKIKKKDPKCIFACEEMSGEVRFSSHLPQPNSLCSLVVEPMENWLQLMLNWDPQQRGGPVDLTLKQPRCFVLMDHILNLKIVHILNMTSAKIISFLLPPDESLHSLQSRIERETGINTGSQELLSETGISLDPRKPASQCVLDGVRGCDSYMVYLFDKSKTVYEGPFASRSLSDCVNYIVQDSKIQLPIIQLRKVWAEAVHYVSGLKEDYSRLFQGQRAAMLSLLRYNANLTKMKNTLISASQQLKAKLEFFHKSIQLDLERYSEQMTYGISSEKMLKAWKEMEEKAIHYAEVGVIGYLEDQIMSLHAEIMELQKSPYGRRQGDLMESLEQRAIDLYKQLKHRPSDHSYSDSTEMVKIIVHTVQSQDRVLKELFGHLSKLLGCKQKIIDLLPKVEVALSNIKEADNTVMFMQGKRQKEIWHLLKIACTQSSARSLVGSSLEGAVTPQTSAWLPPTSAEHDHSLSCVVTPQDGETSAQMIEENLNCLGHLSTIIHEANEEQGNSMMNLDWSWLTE
# [5] = molecular target: Mitogen-activated protein kinase 10 (Homo sapiens, UniProt P53779); test: Selectivity interaction (KinomeScan (DiscoverX)) EUB0000655a MAPK10; conditions: at 10 µM
# [6] = molecular target: Mitogen-activated protein kinase kinase kinase 11 (Homo sapiens) (UniProt Q16584); test: Selectivity interaction (KinomeScan (DiscoverX)) EUB0000618a MAP3K11; conditions: at 10 µM
# [7] = molecular target: T3, NUAK family SNF1-like kinase 1 (Homo sapiens) (UniProt O60285); test: Selectivity interaction (KinomeScan (DiscoverX)) EUB0000607a NUAK1; conditions: at 10 µM
# T3 sequence (whole entry): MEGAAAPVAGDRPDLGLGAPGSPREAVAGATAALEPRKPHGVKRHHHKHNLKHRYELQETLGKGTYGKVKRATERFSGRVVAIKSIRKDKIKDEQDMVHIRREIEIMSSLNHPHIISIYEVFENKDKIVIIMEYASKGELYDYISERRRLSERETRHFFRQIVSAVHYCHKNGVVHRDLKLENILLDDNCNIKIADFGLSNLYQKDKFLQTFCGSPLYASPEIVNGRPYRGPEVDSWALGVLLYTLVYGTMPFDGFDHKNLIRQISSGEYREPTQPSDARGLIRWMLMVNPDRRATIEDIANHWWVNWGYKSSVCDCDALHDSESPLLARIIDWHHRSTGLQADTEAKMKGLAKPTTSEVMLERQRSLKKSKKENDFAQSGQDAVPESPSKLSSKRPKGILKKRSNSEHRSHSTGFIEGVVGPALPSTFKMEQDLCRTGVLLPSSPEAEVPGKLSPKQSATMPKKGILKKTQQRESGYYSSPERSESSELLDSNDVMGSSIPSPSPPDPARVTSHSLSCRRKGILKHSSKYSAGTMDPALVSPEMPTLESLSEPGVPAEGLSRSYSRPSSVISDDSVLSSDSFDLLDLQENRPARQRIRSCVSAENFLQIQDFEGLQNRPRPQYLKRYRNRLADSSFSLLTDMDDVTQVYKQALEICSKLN
# Chain of Mitogen-activated protein kinase 10 (P53779 whole entry): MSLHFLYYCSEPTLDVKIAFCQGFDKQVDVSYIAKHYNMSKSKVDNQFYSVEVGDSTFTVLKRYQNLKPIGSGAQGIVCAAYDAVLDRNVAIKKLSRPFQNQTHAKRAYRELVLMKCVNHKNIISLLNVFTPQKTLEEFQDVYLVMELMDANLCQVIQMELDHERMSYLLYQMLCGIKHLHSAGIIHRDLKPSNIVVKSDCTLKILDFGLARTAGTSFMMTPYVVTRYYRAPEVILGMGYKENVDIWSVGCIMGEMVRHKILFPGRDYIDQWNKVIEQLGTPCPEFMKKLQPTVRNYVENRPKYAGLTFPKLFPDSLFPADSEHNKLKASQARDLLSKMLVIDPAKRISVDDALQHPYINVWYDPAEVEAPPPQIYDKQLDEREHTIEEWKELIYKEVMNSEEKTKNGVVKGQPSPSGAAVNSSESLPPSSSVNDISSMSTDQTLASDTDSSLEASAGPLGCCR
# Chain of Mitogen-activated protein kinase kinase kinase kinase 4 (O95819 2-1239 limits assumed): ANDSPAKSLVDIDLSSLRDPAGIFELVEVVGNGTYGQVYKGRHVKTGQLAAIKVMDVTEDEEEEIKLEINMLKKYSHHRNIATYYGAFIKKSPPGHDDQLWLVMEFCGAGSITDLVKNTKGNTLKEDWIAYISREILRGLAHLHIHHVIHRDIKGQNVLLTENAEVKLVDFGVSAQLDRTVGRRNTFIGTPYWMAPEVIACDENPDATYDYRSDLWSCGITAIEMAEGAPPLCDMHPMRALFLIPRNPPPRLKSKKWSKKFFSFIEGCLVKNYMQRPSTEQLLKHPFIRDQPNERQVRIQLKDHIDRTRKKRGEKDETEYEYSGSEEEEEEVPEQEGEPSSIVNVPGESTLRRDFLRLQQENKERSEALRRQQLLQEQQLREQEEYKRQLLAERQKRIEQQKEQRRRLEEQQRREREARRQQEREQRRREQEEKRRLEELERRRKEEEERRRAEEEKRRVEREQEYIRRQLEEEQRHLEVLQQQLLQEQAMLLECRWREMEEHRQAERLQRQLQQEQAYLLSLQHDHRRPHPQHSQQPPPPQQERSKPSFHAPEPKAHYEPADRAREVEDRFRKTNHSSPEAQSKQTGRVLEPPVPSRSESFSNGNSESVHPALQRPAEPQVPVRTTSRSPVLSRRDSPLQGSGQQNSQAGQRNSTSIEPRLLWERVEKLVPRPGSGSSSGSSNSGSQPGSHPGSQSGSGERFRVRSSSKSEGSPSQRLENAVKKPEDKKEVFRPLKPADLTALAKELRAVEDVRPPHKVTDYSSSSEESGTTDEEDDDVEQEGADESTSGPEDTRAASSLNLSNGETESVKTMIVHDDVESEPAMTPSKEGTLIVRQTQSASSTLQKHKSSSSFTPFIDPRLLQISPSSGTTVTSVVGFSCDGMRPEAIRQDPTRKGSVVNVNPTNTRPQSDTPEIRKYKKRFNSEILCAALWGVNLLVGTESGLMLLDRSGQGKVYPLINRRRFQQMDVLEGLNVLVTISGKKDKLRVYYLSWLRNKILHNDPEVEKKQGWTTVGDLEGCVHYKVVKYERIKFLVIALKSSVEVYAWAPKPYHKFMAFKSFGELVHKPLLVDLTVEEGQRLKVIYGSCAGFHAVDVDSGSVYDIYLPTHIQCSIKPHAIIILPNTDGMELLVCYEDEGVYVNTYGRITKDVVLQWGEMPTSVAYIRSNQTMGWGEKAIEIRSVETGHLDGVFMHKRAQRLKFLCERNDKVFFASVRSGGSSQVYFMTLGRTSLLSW
# Chain of Mitogen-activated protein kinase 8 (P45983 whole entry): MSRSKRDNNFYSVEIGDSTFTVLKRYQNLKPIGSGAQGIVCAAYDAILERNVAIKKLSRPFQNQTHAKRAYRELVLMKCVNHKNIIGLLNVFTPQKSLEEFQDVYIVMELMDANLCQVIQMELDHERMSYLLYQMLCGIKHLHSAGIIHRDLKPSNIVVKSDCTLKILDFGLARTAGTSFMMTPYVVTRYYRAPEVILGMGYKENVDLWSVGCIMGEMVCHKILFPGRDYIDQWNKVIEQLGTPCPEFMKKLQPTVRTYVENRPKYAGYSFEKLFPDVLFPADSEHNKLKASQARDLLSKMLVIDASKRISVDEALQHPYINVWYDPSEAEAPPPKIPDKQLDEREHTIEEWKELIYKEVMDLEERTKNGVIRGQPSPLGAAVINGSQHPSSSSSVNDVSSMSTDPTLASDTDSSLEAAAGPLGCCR
# Chain of Mitogen-activated protein kinase kinase kinase 11 (Homo sapiens) (Q16584 whole entry, looked up): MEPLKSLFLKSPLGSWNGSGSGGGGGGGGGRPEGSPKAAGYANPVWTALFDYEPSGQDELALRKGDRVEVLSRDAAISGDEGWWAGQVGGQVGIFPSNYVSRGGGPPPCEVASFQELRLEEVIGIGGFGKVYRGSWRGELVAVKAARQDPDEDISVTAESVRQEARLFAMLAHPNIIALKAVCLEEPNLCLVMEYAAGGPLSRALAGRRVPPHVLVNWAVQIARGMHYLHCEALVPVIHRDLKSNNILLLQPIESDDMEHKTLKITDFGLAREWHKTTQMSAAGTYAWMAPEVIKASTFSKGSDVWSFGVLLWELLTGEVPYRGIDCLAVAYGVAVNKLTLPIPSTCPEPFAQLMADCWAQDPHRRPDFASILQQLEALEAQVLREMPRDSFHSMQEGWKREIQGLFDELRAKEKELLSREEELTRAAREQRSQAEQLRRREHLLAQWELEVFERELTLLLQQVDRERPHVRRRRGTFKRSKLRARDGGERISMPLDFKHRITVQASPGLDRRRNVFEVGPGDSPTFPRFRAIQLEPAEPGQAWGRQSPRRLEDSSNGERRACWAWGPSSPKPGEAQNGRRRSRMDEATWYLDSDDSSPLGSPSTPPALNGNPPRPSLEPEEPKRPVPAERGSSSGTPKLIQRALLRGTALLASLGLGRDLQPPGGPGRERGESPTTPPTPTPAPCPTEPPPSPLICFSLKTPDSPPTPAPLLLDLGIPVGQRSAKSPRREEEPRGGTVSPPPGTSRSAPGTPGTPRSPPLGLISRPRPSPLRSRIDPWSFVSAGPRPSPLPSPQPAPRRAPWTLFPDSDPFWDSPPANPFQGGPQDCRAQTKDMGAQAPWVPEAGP
smiles,measurement,setting,value
COc1cc(Nc2nc(C)cc(-c3cnn4nc(OC)ccc34)n2)cc(C(F)(F)F)c1,% of control,[1],100%
Cc1cc(F)c(C(=O)Nc2cccc(-c3nncn3C(C)C)n2)cc1-n1cnc(C2CC2)c1,% of control,[2],72%
COc1cc(N(C)c2ccnc3ccc(C(F)(F)F)cc23)cc(OC)c1OC,% binding,[3],86%
same,% binding,[4],92%
CN(C)CCOc1ccc(-c2nc(-c3ccncc3)c(-c3ccc4c(c3)CC/C4=N\O)[nH]2)cc1,% of control,[5],8.6%
O[C@H]1CC[C@H](Nc2ncc3nc(Nc4c(F)cc(F)cc4F)n([C@H]4CCOC4)c3n2)CC1,% of control,[6],100%
CNC(=O)Nc1ccc(-c2nc(N3CC4CCC(C3)O4)c3cnn(C4CCC5(CC4)OCCO5)c3n2)cc1,% of control,[7],82%

# — ChEMBL document CHEMBL5465560, “Selectivity Literature for EUbOPEN Chemogenomic Library” (2024)
